Values of other authors as cited in PubChem BioAssay AID1259409 (Chemical Carcinogenesis Research Information System (CCRIS), 2018).

Test system: rodent chemically induced tumor inhibition, incidence and multiplicity
Assay: CCRIS tumor inhibitor studies
Settings: Carcinogen: N-METHYL-N-NITROSOUREA, 684-93-5, Route [Inhibitor]: ORAL, Promoter: NONE USED

In the case of `CC1=C(/C=C/C(C)=C/C=C/C(C)=C/C(=O)NCCO)C(C)(C)CCC1`, the “tumour outcome (control, treated, inhibition, significance)” value (Dose [Inhibitor]: 2 MMOL/KG DIET DAILY STARTING 12 D AFTER CARCINOGEN TREATMENT THROUGH ABOUT 8 MO AFTER CARCINOGEN DOSE (STUDY DURATION:, Species: RAT, Strain/Sex: F344/MALE, Target Tissue: Type of Lesion: COLON: ADENOMA, Dose [Carcinogen]: 2.5 MG 1/WK FOR 2 WK) is given as 16/39 (41%), 12/30 (40%), 5%, not significant, the “tumour outcome (control, treated, inhibition, significance)” value (Dose [Inhibitor]: 343 MG/KG DIET DAILY STARTING 1 WK AFTER LAST CARCINOGEN TREATMENT AND CONTINUING FOR 6 MO (STUDY DURATION: 9 MO), Species: HAMSTER, Strain/Sex: SYRIAN/MALE, Target Tissue: Type of Lesion: TRACHEA: BENIGN EPITHELIAL NEOPLASM, Dose [Carcinogen]: 0.5% IN 1 ML PHOSPHATE-BUFFERED SALINE 1/WK FOR 12 WK) is given as 6/63 (10%), 6/62 (10%), 0%, not significant and the “tumour outcome (control, treated, inhibition, significance)” value (Dose [Inhibitor]: 343 MG/KG DIET DAILY STARTING 1 WK AFTER LAST CARCINOGEN TREATMENT AND CONTINUING FOR 6 MO (STUDY DURATION: 9 MO), Species: HAMSTER, Strain/Sex: SYRIAN/MALE, Target Tissue: Type of Lesion: TRACHEA: CARCINOMA, Dose [Carcinogen]: 0.5% IN 1 ML PHOSPHATE-BUFFERED SALINE 1/WK FOR 12 WK) is given as 4/63 (6%), 11/62 (18%), -200%, not significant. For the same compound, the “tumour outcome (control, treated, inhibition, significance)” value (Dose [Inhibitor]: 343 MG/KG DIET DAILY STARTING 1 WK AFTER LAST CARCINOGEN TREATMENT AND CONTINUING FOR 6 MO (STUDY DURATION: 9 MO), Species: HAMSTER, Strain/Sex: SYRIAN/MALE, Target Tissue: Type of Lesion: TRACHEA: EPITHELIAL NEOPLASM, Dose [Carcinogen]: 0.5% IN 1 ML PHOSPHATE-BUFFERED SALINE 1/WK FOR 12 WK) was 10/63 (16%), 17/62 (27%), -69%, not significant, the “tumour outcome (control, treated, inhibition, significance)” value (Dose [Inhibitor]: 343 MG/KG IN DIET DAILY FOR 6 MO STARTING 1 WK AFTER FINAL CARCINOGEN DOSE (STUDY DURATION: 9 MO), Species: HAMSTER, Strain/Sex: SYRIAN/MALE, Target Tissue: Type of Lesion: TRACHEA: BENIGN EPITHELIAL NEOPLASM, Dose [Carcinogen]: 0.5% SOLUTION FOR 5 SECOND EXPOSURE 1/WK FOR 12 WK) was 6/63 (10%), 6/62 (10%), 0%, not significant and the “tumour outcome (control, treated, inhibition, significance)” value (Dose [Inhibitor]: 343 MG/KG IN DIET DAILY FOR 6 MO STARTING 1 WK AFTER FINAL CARCINOGEN DOSE (STUDY DURATION: 9 MO), Species: HAMSTER, Strain/Sex: SYRIAN/MALE, Target Tissue: Type of Lesion: TRACHEA: CARCINOMA, Dose [Carcinogen]: 0.5% SOLUTION FOR 5 SECOND EXPOSURE 1/WK FOR 12 WK) was 4/63 (6%), 11/62 (18%), -200%, not significant. For the same compound, the “tumour outcome (control, treated, inhibition, significance)” value (Dose [Inhibitor]: 343 MG/KG IN DIET DAILY FOR 6 MO STARTING 1 WK AFTER FINAL CARCINOGEN DOSE (STUDY DURATION: 9 MO), Species: HAMSTER, Strain/Sex: SYRIAN/MALE, Target Tissue: Type of Lesion: TRACHEA: EPITHELIAL NEOPLASM, Dose [Carcinogen]: 0.5% SOLUTION FOR 5 SECOND EXPOSURE 1/WK FOR 12 WK) was 10/63 (16%), 17/62 (27%), -69%, not significant, the “tumour outcome (control, treated, inhibition, significance)” value (Dose [Inhibitor]: 686 MG/KG DIET DAILY FOR 24 WK STARTING 5 D AFTER LAST DOSE OF CARCINOGEN (STUDY DURATION: 32 WK), Species: RAT, Strain/Sex: F344/MALE, Target Tissue: Type of Lesion: COLON: SARCOMA, Dose [Carcinogen]: 0.5 MG 2/WK FOR 8 WK) was 5/40 (13%), 1/40 (3%), 77%, not calculated and the “tumour outcome (control, treated, inhibition, significance)” value (Dose [Inhibitor]: 686 MG/KG DIET DAILY FOR 24 WK STARTING 5 D AFTER LAST DOSE OF CARCINOGEN (STUDY DURATION: 32 WK), Species: RAT, Strain/Sex: F344/MALE, Target Tissue: Type of Lesion: COLON: TUMOR, Dose [Carcinogen]: 0.5 MG 2/WK FOR 8 WK) was 60%, 68%, -13%, not significant. For the same compound, the “tumour outcome (control, treated, inhibition, significance)” value (Dose [Inhibitor]: 686 MG/KG DIET DAILY FOR 38 WK STARTING 5 D AFTER LAST DOSE OF CARCINOGEN (STUDY DURATION: 44 WK), Species: RAT, Strain/Sex: F344/MALE, Target Tissue: Type of Lesion: COLON: MESOTHELIOMA, Dose [Carcinogen]: 0.5 MG, 2/WK FOR 6 WK STARTING 6 WK PRIOR TO AGENT TREATMENT) was 1/50 (2%), 2/49 (1%), 50%, not calculated, the “tumour outcome (control, treated, inhibition, significance)” value (Dose [Inhibitor]: 686 MG/KG DIET DAILY FOR 38 WK STARTING 5 D AFTER LAST DOSE OF CARCINOGEN (STUDY DURATION: 44 WK), Species: RAT, Strain/Sex: F344/MALE, Target Tissue: Type of Lesion: COLON: TUMOR, Dose [Carcinogen]: 0.5 MG 2/WK FOR 6 WK) was 62%, 61%, 2%, not significant and the “tumour outcome (control, treated, inhibition, significance)” value (Dose [Inhibitor]: 686 MG/KG DIET DAILY FOR 48 WK STARTING 5 D AFTER LAST DOSE OF CARCINOGEN (STUDY DURATION: 52 WK), Species: RAT, Strain/Sex: F344/MALE, Target Tissue: Type of Lesion: COLON: TUMOR, Dose [Carcinogen]: 0.5 MG 2/WK FOR 4 WK) was 31%, 27%, 13%, not significant.
